Measured values as given in patent US12568972B2, “Pyridazinol compounds and derivatives, preparation methods, herbicidal compositions and applications thereof” (Qingdao Kingagroot Chemical Compound Co., Ltd., priority 2018, dated 2026).

What follows are compounds tested on Amaranthus retroflexus (assay: Post-emergence test, weed control effect). Conditions: Dose 3000 g/ha, after 3 weeks.
Assay type: in vivo
Excerpt: (§1) The activity level standard of harmful plant destruction (i.e. growth inhibition rate) is as follows: • Level 10: completely dead; • Level 9: above 90% growth inhibition rate; • Level 8: above 80% growth inhibition rate; • Level 7: above 70% growth inhibition rate; • Level 6: above 60% growth inhibition rate; • Level 5: above 50% growth inhibition rate; • Level 4: above 40% growth inhibition rate; • Level 3: above 30% growth inhibition rate; • Level 2: above 20% growth inhibition rate; • Level 1: below 20% growth inhibition rate; • Level 0: no effect.
(§2) The above described growth inhibition rates are fresh weight inhibition rates.
(§3) Experiment of post-emergence test: monocotyledonous and dicotyledonous weed seeds as well as main crop seeds (i.e., wheat, corn, rice, soybean, cotton, oilseed rape, millet and sorghum) were put into a plastic pot loaded with soil, then covered with 0.5-2 cm of soil, and the seeds were allowed to grow in good greenhouse environment. The test plants were treated at 2-3 leaf stage 2-3 weeks after sowing. The test compounds of the invention were dissolved in acetone respectively, then added with Tween-80 and diluted by a certain amount of water to give solutions with certain concentrations, and added with 80% vegetable oil methyl ester synergist at 1500 g/ha. The solution was sprayed to the plants with a sprayer. The plants were cultured for 3 weeks in the greenhouse.

Structure (SMILES)	weed control effect, Amaranthus retroflexus (activity level)	weed control effect (activity level), Amaranthus retroflexus
O=C(Oc1cc(C(F)(F)F)nnc1-c1ccccc1)c1ccc2occc2c1 [Compound 1-117]	10	–
O=C(/C=C/c1ccc(Cl)cc1)Oc1cc(C(F)(F)F)nnc1-c1ccc(F)cc1 [Compound 1-97]	10	–
CCCCCCCSC(=O)Oc1cc(C(F)(F)F)nnc1-c1ccc(Cl)c(Cl)c1 [Compound 1-53]	10	–
CCOC(=S)Oc1cc(C(F)(F)F)nnc1-c1ccc(C)cc1 [Compound 1-155]	10	–
O=[N+]([O-])c1ccc(S(=O)(=O)Oc2cc(C(F)(F)F)nnc2-c2ccc(F)c(F)c2)cc1 [Compound 1-135]	10	–
CC(=O)c1cccc(S(=O)(=O)Oc2cc(C(F)(F)F)nnc2-c2ccccc2)c1 [Compound 1-140]	10	–
Cn1nc(Cl)cc1-c1nnc(C(F)(F)F)cc1O [Compound 776]	–	10
CCC/C=N\Oc1cc(C(F)(F)F)nnc1-c1ccc(F)cc1 [Compound 1-172]	10	–
Oc1cc(C(F)(F)F)nnc1-c1ccnn1Cc1ccccc1 [Compound 833]	–	10
Oc1cc(C(F)(F)F)nnc1-c1cccc(C(F)(F)F)c1F [Compound 761]	–	10
Cc1nn(C)c(-c2nnc(C(F)(F)F)cc2O)c1F [Compound 803]	–	10

Same assay, conditions: dose 1000 g/ha, after 3 weeks

Structure (SMILES)	weed control effect (activity level), Amaranthus retroflexus
Oc1cc(C(F)(F)F)nnc1-c1cccc2cccnc12 [Compound 734]	10
COc1ccc(F)cc1-c1nnc(C(F)(F)F)cc1O [Compound 60]	10
Oc1cc(C(F)(F)F)nnc1-c1cccc(Cl)c1 [Compound 27]	10
O=Cc1ccc(-c2nnc(C(F)(F)F)cc2O)cc1F [Compound 65]	10

Same assay, conditions: dose 2000 g/ha, after 3 weeks

Structure (SMILES)	weed control effect (activity level), Amaranthus retroflexus
C#Cc1ccc(-c2nnc(C(F)(F)F)cc2O)nn1 [Compound 349]	10
Oc1cc(C(F)(F)F)nnc1-c1cccnc1Cl [Compound 205]	10

What follows are compounds tested on Chenopodiaceae (assay: Post-emergence test, weed control effect). Conditions: Dose 3000 g/ha, after 3 weeks.
Assay type: in vivo
Excerpt: as §1, §2, §3

Structure (SMILES)	weed control effect, Chenopodiaceae (activity level)	weed control effect (activity level), Chenopodiaceae
O=C(Oc1cc(C(F)(F)F)nnc1-c1ccccc1)c1ccc2occc2c1 [Compound 1-117]	10	–
O=C(/C=C/c1ccc(Cl)cc1)Oc1cc(C(F)(F)F)nnc1-c1ccc(F)cc1 [Compound 1-97]	10	–
CCCCCCCSC(=O)Oc1cc(C(F)(F)F)nnc1-c1ccc(Cl)c(Cl)c1 [Compound 1-53]	10	–
CCOC(=S)Oc1cc(C(F)(F)F)nnc1-c1ccc(C)cc1 [Compound 1-155]	10	–
O=[N+]([O-])c1ccc(S(=O)(=O)Oc2cc(C(F)(F)F)nnc2-c2ccc(F)c(F)c2)cc1 [Compound 1-135]	10	–
CC(=O)c1cccc(S(=O)(=O)Oc2cc(C(F)(F)F)nnc2-c2ccccc2)c1 [Compound 1-140]	10	–
Cn1nc(Cl)cc1-c1nnc(C(F)(F)F)cc1O [Compound 776]	–	10
CCC/C=N\Oc1cc(C(F)(F)F)nnc1-c1ccc(F)cc1 [Compound 1-172]	10	–
Oc1cc(C(F)(F)F)nnc1-c1ccnn1Cc1ccccc1 [Compound 833]	–	10
Oc1cc(C(F)(F)F)nnc1-c1cccc(C(F)(F)F)c1F [Compound 761]	–	10
Cc1nn(C)c(-c2nnc(C(F)(F)F)cc2O)c1F [Compound 803]	–	10

Same assay, conditions: dose 1000 g/ha, after 3 weeks

Structure (SMILES)	weed control effect (activity level), Chenopodiaceae
Oc1cc(C(F)(F)F)nnc1-c1cccc2cccnc12 [Compound 734]	10
COc1ccc(F)cc1-c1nnc(C(F)(F)F)cc1O [Compound 60]	10
Oc1cc(C(F)(F)F)nnc1-c1cccc(Cl)c1 [Compound 27]	10
O=Cc1ccc(-c2nnc(C(F)(F)F)cc2O)cc1F [Compound 65]	10

Same assay, conditions: dose 2000 g/ha, after 3 weeks

Structure (SMILES)	weed control effect (activity level), Chenopodiaceae
C#Cc1ccc(-c2nnc(C(F)(F)F)cc2O)nn1 [Compound 349]	10
Oc1cc(C(F)(F)F)nnc1-c1cccnc1Cl [Compound 205]	10

These compounds were tested on Rorippa indica (assay: Post-emergence test, weed control effect). Conditions: Dose 3000 g/ha, after 3 weeks.
Assay type: in vivo
Excerpt: as §1, §2, §3

Structure (SMILES)	weed control effect, Rorippa indica (activity level)	weed control effect (activity level), Rorippa indica
O=C(Oc1cc(C(F)(F)F)nnc1-c1ccccc1)c1ccc2occc2c1 [Compound 1-117]	10	–
O=C(/C=C/c1ccc(Cl)cc1)Oc1cc(C(F)(F)F)nnc1-c1ccc(F)cc1 [Compound 1-97]	10	–
CCCCCCCSC(=O)Oc1cc(C(F)(F)F)nnc1-c1ccc(Cl)c(Cl)c1 [Compound 1-53]	10	–
CCOC(=S)Oc1cc(C(F)(F)F)nnc1-c1ccc(C)cc1 [Compound 1-155]	10	–
O=[N+]([O-])c1ccc(S(=O)(=O)Oc2cc(C(F)(F)F)nnc2-c2ccc(F)c(F)c2)cc1 [Compound 1-135]	10	–
CC(=O)c1cccc(S(=O)(=O)Oc2cc(C(F)(F)F)nnc2-c2ccccc2)c1 [Compound 1-140]	10	–
Cn1nc(Cl)cc1-c1nnc(C(F)(F)F)cc1O [Compound 776]	–	10
CCC/C=N\Oc1cc(C(F)(F)F)nnc1-c1ccc(F)cc1 [Compound 1-172]	10	–
Oc1cc(C(F)(F)F)nnc1-c1ccnn1Cc1ccccc1 [Compound 833]	–	10
Oc1cc(C(F)(F)F)nnc1-c1cccc(C(F)(F)F)c1F [Compound 761]	–	10
Cc1nn(C)c(-c2nnc(C(F)(F)F)cc2O)c1F [Compound 803]	–	10

Same assay, conditions: dose 1000 g/ha, after 3 weeks

Structure (SMILES)	weed control effect (activity level), Rorippa indica
Oc1cc(C(F)(F)F)nnc1-c1cccc2cccnc12 [Compound 734]	10
COc1ccc(F)cc1-c1nnc(C(F)(F)F)cc1O [Compound 60]	10
Oc1cc(C(F)(F)F)nnc1-c1cccc(Cl)c1 [Compound 27]	10
O=Cc1ccc(-c2nnc(C(F)(F)F)cc2O)cc1F [Compound 65]	10

Same assay, conditions: dose 2000 g/ha, after 3 weeks

Structure (SMILES)	weed control effect (activity level), Rorippa indica
C#Cc1ccc(-c2nnc(C(F)(F)F)cc2O)nn1 [Compound 349]	10
Oc1cc(C(F)(F)F)nnc1-c1cccnc1Cl [Compound 205]	10

What follows are compounds tested on Veronica polita (assay: Post-emergence test, weed control effect). Conditions: Dose 3000 g/ha, after 3 weeks.
Assay type: in vivo
Excerpt: as §1, §2, §3

Structure (SMILES)	weed control effect, Veronica polita (activity level)	weed control effect (activity level), Veronica polita
O=C(Oc1cc(C(F)(F)F)nnc1-c1ccccc1)c1ccc2occc2c1 [Compound 1-117]	10	–
O=C(/C=C/c1ccc(Cl)cc1)Oc1cc(C(F)(F)F)nnc1-c1ccc(F)cc1 [Compound 1-97]	10	–
CCCCCCCSC(=O)Oc1cc(C(F)(F)F)nnc1-c1ccc(Cl)c(Cl)c1 [Compound 1-53]	10	–
CCOC(=S)Oc1cc(C(F)(F)F)nnc1-c1ccc(C)cc1 [Compound 1-155]	10	–
O=[N+]([O-])c1ccc(S(=O)(=O)Oc2cc(C(F)(F)F)nnc2-c2ccc(F)c(F)c2)cc1 [Compound 1-135]	10	–
CC(=O)c1cccc(S(=O)(=O)Oc2cc(C(F)(F)F)nnc2-c2ccccc2)c1 [Compound 1-140]	10	–
Cn1nc(Cl)cc1-c1nnc(C(F)(F)F)cc1O [Compound 776]	–	10
CCC/C=N\Oc1cc(C(F)(F)F)nnc1-c1ccc(F)cc1 [Compound 1-172]	10	–
Oc1cc(C(F)(F)F)nnc1-c1ccnn1Cc1ccccc1 [Compound 833]	–	10
Oc1cc(C(F)(F)F)nnc1-c1cccc(C(F)(F)F)c1F [Compound 761]	–	10
Cc1nn(C)c(-c2nnc(C(F)(F)F)cc2O)c1F [Compound 803]	–	10

Same assay, conditions: dose 1000 g/ha, after 3 weeks

Structure (SMILES)	weed control effect (activity level), Veronica polita
Oc1cc(C(F)(F)F)nnc1-c1cccc2cccnc12 [Compound 734]	10
COc1ccc(F)cc1-c1nnc(C(F)(F)F)cc1O [Compound 60]	10
Oc1cc(C(F)(F)F)nnc1-c1cccc(Cl)c1 [Compound 27]	10
O=Cc1ccc(-c2nnc(C(F)(F)F)cc2O)cc1F [Compound 65]	10

Same assay, conditions: dose 2000 g/ha, after 3 weeks

Structure (SMILES)	weed control effect (activity level), Veronica polita
C#Cc1ccc(-c2nnc(C(F)(F)F)cc2O)nn1 [Compound 349]	10
Oc1cc(C(F)(F)F)nnc1-c1cccnc1Cl [Compound 205]	10
